# Experiments:
# [1] = tested on: C-terminal domain (CTD) of RNA polymerase II, serine 2 and serine 5; assay: Immunoblotting: phosphorylation of the C-terminal domain of RNA polymerase II; assay type: cell-based
# Experimental: (§1) Cell were detached with rubber policeman and washed three times with ice-cold PBS and lysed in buffer (50 mM Tris, pH 7.4, 250 mM NaCl, 5 mM EDTA, 50 mM NaF, 1 mM Na3VO4, 1% Nonidet P40) containing mixture of protease and phosphatase inhibitors (Sigma-Aldrich St Louis, Mo., USA). 20 μg of total proteins were separated by SDS-polyacrylamide gel electrophoresis (SDS-PAGE) on 8% or 10% gels and transferred onto nitrocellulose membranes. Membranes were blocked in 5% milk and 0.1% Tween 20 in PBS and probed overnight with specific monoclonal antibodies or rabbit polyclonal sera. Primary antibodies specific for RNA polymerase II (all from Santa Cruz Biotechnology, California, USA) included: (i) N-20 used at 1 μg/ml, (ii) H14, specific for form phosphorylated at phosphoserine 5, used at 6 μg/ml and (iii) H5, specific for form phosphorylated at phosphoserine 2 used at 4 μg/ml. Additional primary mAb used in immunblots included (iv) anti-p53 (DO-1, in house) used at 1 μg/ml, (v) anti-p21^WAF1 (118, in house), used at 1 μg/ml), (vi) anti-actin (A-2066, Sigma-Aldrich St Louis, Mo., USA) used at 1 μg/ml, (vii) anti-T-antigen (419, in house), used at 1 μg/ml. All primary antibodies were diluted in PBS containing 5% powdered milk; 0.1% Tween 20. Peroxidase conjugated rabbit anti-mouse immunoglobulin or porcine anti-rabbit immunoglobulin antisera (DAKO, Glostrup, Denmark) were used as the secondary antibodies and visualised with ECL reagents (Amersham-Pharmacia, Little Chalfont, UK).
# Modulation of expression from the HIV promoter by CDKI treatment may be mediated by transcriptional regulation. At the C-terminus of the largest subunit of RNA Pol II is an important regulatory domain referred to as CTD (C-terminal domain). We therefore investigated the effect of CDKIs on CTD serine 2 and serine 5 phosphorylation. […] Although the functions of CDKs and RNA polymerase II were suppressed, the expression from incorporated viral promoters was enhanced.
# Cell were detached with rubber policeman and washed three times with ice-cold PBS and lysed in buffer (50 mM Tris, pH 7.4, 250 mM NaCl, 5 mM EDTA, 50 mM NaF, 1 mM Na3VO4, 1% Nonidet P40) containing mixture of protease and phosphatase inhibitors (Sigma-Aldrich St Louis, Mo., USA). 20 μg of total proteins were separated by SDS-polyacrylamide gel electrophoresis (SDS-PAGE) on 8% or 10% gels and transferred onto nitrocellulose membranes. Membranes were blocked in 5% milk and 0.1% Tween 20 in PBS and probed overnight with specific monoclonal antibodies or rabbit polyclonal sera. […]
# [2] = tested on: pRb (Ser780, Ser807, Thr821) in MCF7 cells; assay: Immunoblot analysis of pRb phosphorylation in MCF7 cells; assay type: cell-based, human; settings: MCF7 cells treated for 24 h, immunoblot (FIG. 2)
# Experimental: as §1, with “Peroxidase conjugated rabbit anti-mouse immunoglobulin or porcine anti-rabbit immunoglobulin antisera (DAKO, Glostrup, Denmark) were used as the secondary antibodies and visualised with ECL reagents (Amersham-Pharmacia, Little Chalfont, UK).” left out
# HSV-2 = assay: Plaque number reduction assay, HSV-2 on HFFF; assay type: cell-based, HSV-2 strain HG52
# IV = assay type: cell-based, Influenza Virus H1N1 strain A/PR/8/34; settings: MDCK cells
# CDK9/cyclin T = CDK9/cyclin T (Homo sapiens, UniProt P50750); assay: CDK inhibition assay, CDK9/cyclin T
# [3] = In vitro cytotoxic activity (Calcein AM, 72 hours), BJ; settings: human, BJ normal fibroblasts
# [4] = tested on: human osteogenic sarcoma HOS; assay: In vitro cytotoxic activity (Calcein AM, 72 hours), HOS; settings: read-out: Cytotoxicity IC50 HOS
# Chain of CDK9/cyclin T (P50750 whole entry, species assumed): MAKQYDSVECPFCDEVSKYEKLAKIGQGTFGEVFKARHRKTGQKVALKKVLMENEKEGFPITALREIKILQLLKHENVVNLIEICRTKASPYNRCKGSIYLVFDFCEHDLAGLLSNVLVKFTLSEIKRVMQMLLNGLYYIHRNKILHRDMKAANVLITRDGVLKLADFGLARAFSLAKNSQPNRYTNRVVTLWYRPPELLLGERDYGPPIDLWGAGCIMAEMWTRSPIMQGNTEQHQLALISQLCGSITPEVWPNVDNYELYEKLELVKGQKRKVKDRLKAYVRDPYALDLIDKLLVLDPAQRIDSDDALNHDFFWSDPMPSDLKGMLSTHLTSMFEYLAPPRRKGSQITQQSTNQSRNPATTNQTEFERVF
# Chain of CDK9/cyclin T (O60563 whole entry partner, species assumed): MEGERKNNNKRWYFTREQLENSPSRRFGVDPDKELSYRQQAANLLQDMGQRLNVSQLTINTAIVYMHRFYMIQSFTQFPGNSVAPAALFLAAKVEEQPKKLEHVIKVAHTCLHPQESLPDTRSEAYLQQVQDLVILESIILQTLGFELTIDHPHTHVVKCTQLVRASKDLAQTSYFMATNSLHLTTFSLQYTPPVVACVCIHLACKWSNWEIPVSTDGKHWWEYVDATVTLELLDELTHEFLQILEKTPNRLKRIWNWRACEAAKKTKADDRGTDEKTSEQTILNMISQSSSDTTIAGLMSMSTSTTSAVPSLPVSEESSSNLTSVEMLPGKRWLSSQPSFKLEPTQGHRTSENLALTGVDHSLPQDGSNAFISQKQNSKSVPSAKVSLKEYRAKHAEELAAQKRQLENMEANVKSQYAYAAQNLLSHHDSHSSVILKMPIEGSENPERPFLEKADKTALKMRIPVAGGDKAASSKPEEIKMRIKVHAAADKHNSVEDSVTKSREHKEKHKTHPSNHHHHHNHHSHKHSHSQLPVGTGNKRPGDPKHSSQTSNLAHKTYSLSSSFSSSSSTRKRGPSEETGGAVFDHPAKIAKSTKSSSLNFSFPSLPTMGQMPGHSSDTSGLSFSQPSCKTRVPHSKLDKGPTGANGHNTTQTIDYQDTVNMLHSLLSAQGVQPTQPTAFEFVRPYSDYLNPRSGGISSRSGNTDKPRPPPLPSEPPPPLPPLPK
structure (smiles),measurement,setting,value
"CCC(CO)Nc1nc(NCc2ccccc2N)c2ncn(C(C)C)c2n1 (stereo not drawn) [Compound 105, 2-({6-[(2-aminobenzyl)amino]-9-isopropyl-9H-purin-2-yl}amino)butan-1-ol]",phosphorylation of both serine 2 and serine 5 of RNA polymerase II CTD,"[1]; 12 hours treatment, cell lines with incorporated SV40, all tested cell lines (FIG. 12A)",inhibited
same,levels of serine 2 and serine 5 phosphorylation of RNA polymerase II CTD,"[1]; COS-1, CV-1 and MCF-7 cells",substantially reduced
same,phosphorylation of CTD of RNA polymerase II,"[1]; MCF7 cells treated for 24 h, immunoblot (FIG. 2)",reduced phosphorylation
same,"phosphorylation of pRb at Ser780, Ser807 and Thr821",[2],Reduced phosphorylation
same,inhibition of virus replication (in words),HSV-2,inhibited replication
same,inhibition of virus replication (in words),IV,ineffective
same,IC50,CDK9/cyclin T,0.005 µM
same,IC50 at 72 h,[3],> 167 µM
same,IC50,[4],11 µM

# Source: patent US9023857B2, “Substituted 6-(2-aminobenzylamino)purine derivatives, their use as medicaments and preparations containing these compounds” (Univerzita Palackeho V Olomouci, priority 2009, dated 2015)
